Assay results taken from patent publication US20160175379A1, “COMBINATION THERAPY FOR THE TREATMENT OF ISCHEMIA-REPERFUSION INJURY” (STEALTH BIO THERAPEUTICS CORP, priority 2013, published 2016).

How the values were obtained:
[1] = test system: acute myocardial infarction injury; test: Acute myocardial infarction injury (ischemia/reperfusion) in a rabbit model; type: in vivo, New Zealand white rabbits; details: 30 min ischemia, 3 h reperfusion, IV infusion, compared to the control (vehicle alone) group
Protocol: The effects of a combination of aromatic-cationic peptides and a cardiovascular agent in protecting against an acute myocardial infarction injury in a rabbit model are investigated.
New Zealand white rabbits are used in this study. The rabbits are males and >10 weeks in age. Environmental controls in the animal rooms are set to maintain temperatures of 61° to 72° F. and relative humidity between 30% and 70%. Room temperature and humidity are recorded hourly, and monitored daily. There are approximately 10-15 air exchanges per hour in the animal rooms. Photoperiod is 12-hr light/12-hr dark (via fluorescent lighting) with exceptions as necessary to accommodate dosing and data collection. Routine daily observations are performed. Harlan Teklad, Certified Diet (2030C), rabbit diet is provided approximately 180 grams per day from arrival to the facility. […]
In all cases, treatments are started approximately 10 min after the onset of a 30 min ischemic insult (coronary occlusion) and continued for up to 3 h following reperfusion. In all cases, cardiovascular function is monitored both prior to and during ischemia, as well as for up to 180 min (3 h) post-reperfusion. The experiments are terminated 3 h post-reperfusion (end of study); irreversible myocardial injury (infarct size by histomorphometery) at this time-point is evaluated, and is the primary-end-point of the study. […]

[2] = test system: cardiac ischemia-reperfusion injury; test: Large animal model of acute myocardial infarction injury (cardiac ischemia-reperfusion); type: in vivo, sheep or pig; details: peptide given prior to ischemia
Protocol: The effects of aromatic-cationic peptides and cardiovascular agent in protecting against cardiac ischemia-reperfusion injury in a large animal model (e.g., a porcine or ovine model) are investigated.
The animals are sedated with intramuscular ketamine (50 mg/kg), glycopyrrolate (0.2 mg/kg), and buprenorphine (0.05 mg/kg). After intubation, animals are ventilated with a mechanical respirator (Hallowell EMC Model AWS; Hallowell, Pittsfield, Mass.) using room air enriched with 0.6 L/min oxygen. Catheters are introduced into a small auricular artery and vein, and into the right jugular vein for the continuous measurement of blood pressure and the administration of intravenous medications. […] Heart rate, blood pressure, surface electrocardiogram, and rectal temperature are continuously monitored (Hewlett Packard 78534C; Palo Alto, Calif.). […]
Animals undergo a left thoracotomy, and silicone vascular loops (Quest Medical, Allen, Tex.) are placed around the left anterior descending artery and its second diagonal branch, which is 40% of the distance from the apex to the base of the heart. […] Arterial blood pressure, heart rate, surface electrocardiograms (ECG), and rectal temperature are continuously monitored (Hewlett Packard 78534C; Palo Alto, Calif.) throughout the protocol in all animals. […]

D-Arg-2′6′-Dmt-Lys-Phe-NH2 [peptide]
infarct size and apoptotic cell death [1]: significantly reduced | redox ratio (RR) during ischemia [2]: blunted drop in the RR during ischemia
